These results are taken from patent publication US12398147B2, “Macrocyclic spiropyrrolidine derived antiviral agents” (Enanta Pharmaceuticals, Inc., priority 2021, dated 2025).

Molecules are shown by their SMILES. Read-outs that look alike come from different tables or passages of the source. Bounds are passed on as bounds.

In series [1] the target is SARS-CoV-2 3CL-protease (Severe acute respiratory syndrome coronavirus 2 (2019-nCoV) (SARS-CoV-2), UniProt P0DTD1). Kind of series: biochemical.
Series [2] deals with 229E human corona virus (hCoV). Nature of the series: 229E Cellular Assay (MRC5), live virus assay, ATPlite. Format: cell-based, hCoV-229E. The conditions noted are these: read-out: EC50 (229E). Background: Cellular ATP, detected with luciferase, serves as a proxy for viable cell number.
Series [3] deals with SARS-CoV-2 USA-WA1/2020. Kind of series: SARS-CoV-2 Cellular Assay (Vero 76), inhibition of CPE, neutral red. The format is cell-based. The conditions noted are these: Severe acute respiratory syndrome coronavirus 2, 144 h; Vero 76 cells infected with SARS-CoV-2 USA-WA1/2020, day 6, neutral red CPE.
Series [4] can be described thus: in vitro. The conditions noted are these: African green monkey.
The mark [5] stands for this setting: recombinant SARS-CoV-2 3CL-protease 10 nM, 30 min preincubation, read-out: FRET IC50.
Setting [6] is: Human coronavirus 229E, MRC5, 144 h, MRC-5 cells, hCoV-229E MOI 0.05, 6 days, ATPlite.

For the compound `CC(C)C[C@H]1C(=O)N2C[C@]3(C[C@H]2C#N)C(=O)Nc2ccc(cc23)C(O)CCCCN1C(=O)c1cc2c(F)cc(F)cc2[nH]1` (stereo partly shown) [Example 26], the IC50 in series [1] (setting [5]) was below 100 nM. For the same compound, the EC50 in series [2] (setting [6]) is below 100 nM.

As for `CC(C)C[C@H]1C(=O)N2C[C@]3(C[C@H]2C#N)C(=O)Nc2ccc(cc23)CCCCCN1C(=O)c1cnn(C(C)(C)C)c1` [Example 17], in series [1] (setting [5]), the IC50 is below 100 nM. Besides, in series [2] (setting [6]), the EC50 is below 100 nM.

With `CC(C)C[C@H]1C(=O)N2C[C@]3(C[C@H]2C#N)C(=O)Nc2ccc(cc23)C(=O)CCCCN1C(=O)c1cc2c(F)cc(F)cc2[nH]1` [Example 27], the IC50 in series [1] (setting [5]) was below 100 nM. Besides, the EC50 in series [2] (setting [6]) is below 100 nM.

`CC(C)C[C@H]1C(=O)N2C[C@]3(C[C@H]2C#N)C(=O)Nc2ccc(cc23)OCCCCN1C(=O)C(=O)NC1(c2ccc(F)cc2F)CC1` [Example 29]: the IC50 in series [1] (setting [5]) is below 100 nM.

The compound `N#C[C@@H]1C[C@]23CN1C(=O)[C@H](Cc1ccccc1)N(C(=O)c1cn(-c4ccc(F)cc4)nn1)CCCCCc1ccc(c2c1)NC3=O` [Example 10] displayed an EC50 in series [3] below 1000 nM. In addition, the CC50 in series [4] was in the range of 1000 to 50000 nM. Also, the IC50 in series [1] (setting [5]) is below 100 nM.

For the compound `CCCC[C@H]1C(=O)N2C[C@]3(C[C@H]2C#N)C(=O)Nc2ccc(cc23)CCCCCN1C(=O)c1cc2c(F)cc(F)c(F)c2[nH]1` [Example 19], in series [1] (setting [5]), the IC50 was below 100 nM. Also, the EC50 in series [2] (setting [6]) was below 100 nM.

With `CC(C)C[C@H]1C(=O)N2C[C@]3(C[C@H]2C#N)C(=O)Nc2ccc(cc23)CCCCCN1C(=O)c1cn(-c2ccccc2)nn1` [Example 7], the figures for the EC50 in series [3] and in series [2] (setting [6]) were below 1000 nM and below 100 nM, respectively. Besides, in series [4], the CC50 was in the range of 1000 to 50000 nM. Further, the IC50 in series [1] (setting [5]) is below 100 nM.

As to `CC(C)C[C@H]1C(=O)N2C[C@]3(C[C@H]2C#N)C(=O)Nc2ccc(cc23)CCCCCN1C(=O)c1cn(C2CCC2)nn1` [Example 12], the IC50 in series [1] (setting [5]) is below 100 nM. Besides, in series [2] (setting [6]), the EC50 is below 100 nM.

In the case of `CC(C)C[C@H]1C(=O)N2C[C@]3(C[C@H]2C#N)C(=O)Nc2ccc(cc23)OCCCCN1C(=O)c1cc2c(F)cc(F)cc2[nH]1` [Example 28], in series [1] (setting [5]), the 50% inhibitory concentration (IC50) was below 100 nM. Also, in series [2] (setting [6]), the EC50 is below 100 nM.

For the compound `CC(C)C[C@H]1C(=O)N2C[C@]3(C[C@H]2C#N)C(=O)Nc2ccc(cc23)CCCCCN1C(=O)c1nnc(-c2ccccc2)[nH]1` [Example 13], the IC50 in series [1] was in the range of 100 to 1000 nM. The EC50 in series [2] (setting [6]) lay within 100 to 1000 nM.

For `CC(C)C[C@H]1C(=O)N2C[C@]3(C[C@H]2C#N)C(=O)Nc2ccc(cc23)CCCCCN1C(=O)c1cc2c(F)cc(F)cc2[nH]1` [Example 4], the figures for the EC50 in series [3] and in series [2] (setting [6]) were below 1000 nM and below 100 nM, respectively. Besides, the CC50 in series [4] fell in the range of 1000 to 50000 nM. The IC50 in series [1] (setting [5]) was below 100 nM.

Turning to `N#C[C@@H]1C[C@]23CN1C(=O)[C@H](Cc1ccccc1)N(C(=O)c1cc4c(F)cc(F)cc4[nH]1)CCCCCc1ccc(c2c1)NC3=O` [Example 9], the EC50 in series [3] was below 1000 nM; in series [2] (setting [6]), below 100 nM. The same compound gave a CC50 in series [4] of 1000 to 50000 nM. For the same compound, the IC50 in series [1] (setting [5]) was below 100 nM.

For the compound `CC(C)C[C@H]1C(=O)N2C[C@]3(C[C@H]2C#N)C(=O)Nc2ccc(cc23)CCCCCN1C(=O)c1cnn(-c2ccc(C(F)(F)F)cc2)c1` [Example 18], the IC50 in series [1] (setting [5]) is below 100 nM. Moreover, the EC50 in series [2] (setting [6]) was below 100 nM.

For `CC(C)C[C@H]1C(=O)N2C[C@]3(C[C@H]2C#N)C(=O)Nc2ccc(cc23)CCCCCCN1C(=O)c1cc2c(F)cc(F)cc2[nH]1` [Example 8], the concentration for half-maximal inhibition (IC50) in series [1] (setting [5]) fell in the range of 100 to 1000 nM. Further, the EC50 in series [2] (setting [6]) lay within 100 to 1000 nM.

As to `CC(C)C[C@H]1C(=O)N2C[C@]3(C[C@H]2C#N)C(=O)Nc2ccc(cc23)CCCCCN1C(=O)c1cnn(-c2ccc(F)cc2F)c1` [Example 23], the IC50 in series [1] (setting [5]) is below 100 nM. Moreover, the 50% effective concentration (EC50) in series [2] (setting [6]) is below 100 nM.

For the compound `CC(C)C[C@H]1C(=O)N2C[C@]3(C[C@H]2C#N)C(=O)Nc2ccc(cc23)CCCCCN1C(=O)OCc1ccccc1` [Example 2], the IC50 in series [1] (setting [5]) was below 100 nM. The EC50 in series [2] (setting [6]) is 100 to 1000 nM.

With `CC(C)C[C@H]1C(=O)N2C[C@]3(C[C@H]2C#N)C(=O)Nc2ccc(cc23)C=CCCCN1C(=O)OCc1ccccc1` [Example 1], the IC50 in series [1] (setting [5]) is below 100 nM. Further, the EC50 in series [2] (MRC-5 cells, hCoV-229E MOI 0.05, 6 days, ATPlite) fell in the range of 100 to 1000 nM.

`CC(C)C[C@H]1C(=O)N2C[C@]3(C[C@H]2C#N)C(=O)Nc2ccc(cc23)CCCCCN1C(=O)c1cc2ccc(C(F)(F)F)cc2[nH]1` [Example 6]: the IC50 in series [1] (setting [5]) fell in the range of 100 to 1000 nM. Moreover, the EC50 in series [2] (setting [6]) is below 100 nM.

As to `CC(C)C[C@H]1C(=O)N2C[C@]3(C[C@H]2C#N)C(=O)Nc2ccc(cc23)CCCCCN1C(=O)c1cc2c(F)cc(F)c(F)c2[nH]1` [Example 5], the EC50 in series [3] is below 1000 nM; in series [2] (setting [6]), below 100 nM. In series [4], this compound yielded a CC50 of 1000 to 50000 nM. Further, the IC50 in series [1] (setting [5]) is below 100 nM.

As to `CC(C)C[C@H]1C(=O)N2C[C@]3(C[C@H]2C#N)C(=O)Nc2ccc(cc23)CCCCCN1C(=O)C(=O)NC1(c2ccc(F)cc2F)CC1` [Example 24], in series [1] (setting [5]), the IC50 is below 100 nM. Also, the EC50 in series [2] (setting [6]) was below 100 nM.

Turning to `CC(C)C[C@H]1C(=O)N2C[C@]3(C[C@H]2C#N)C(=O)Nc2ccc(cc23)CCCCCN1C(=O)c1nnn(-c2ccccc2)n1` [Example 11], the IC50 in series [1] (setting [5]) was below 100 nM. Also, in series [2] (setting [6]), the half-maximal effective concentration (EC50) was 100 to 1000 nM.

Turning to `CCCC[C@H]1C(=O)N2C[C@]3(C[C@H]2C#N)C(=O)Nc2ccc(cc23)CCCCCN1C(=O)c1cn(-c2cc(F)c(F)cc2F)nn1` [Example 16], the IC50 in series [1] (setting [5]) was below 100 nM. The EC50 in series [2] (setting [6]) is below 100 nM.

Consider `CC(C)C[C@H]1C(=O)N2C[C@]3(C[C@H]2C#N)C(=O)Nc2ccc(cc23)CCCCCN1C(=O)c1cn(C2CC2)nn1` [Example 14], for which the values for the half-maximal effective concentration (EC50) in series [3] and in series [2] (setting [6]) were below 1000 nM and below 100 nM, respectively. In series [4], this compound returned a CC50 of 1000 to 50000 nM. Besides, the IC50 in series [1] (setting [5]) was below 100 nM.

In the case of `CC(C)C[C@H]1C(=O)N2C[C@]3(C[C@H]2C#N)C(=O)Nc2ccc(cc23)CCCCCN1C(=O)c1cnn(-c2ccccc2C(F)(F)F)c1` [Example 21], in series [1] (setting [5]), the 50% inhibitory concentration (IC50) was below 100 nM. In series [2] (setting [6]), the EC50 is below 100 nM.

Regarding `CC(C)(C)C[C@H]1C(=O)N2C[C@]3(C[C@H]2C#N)C(=O)Nc2ccc(cc23)CCCCCN1C(=O)c1cc2c(F)cc(F)cc2[nH]1` [Example 20], the IC50 in series [1] (setting [5]) was below 100 nM. In series [2] (setting [6]), the concentration giving a half-maximal response (EC50) is below 100 nM.

On to `CC(C)C[C@H]1C(=O)N2C[C@]3(C[C@H]2C#N)C(=O)Nc2ccc(cc23)/C=C\CCN1C(=O)OCc1ccccc1` [Example 3], for which the IC50 in series [1] (setting [5]) is below 100 nM. In series [2] (Human coronavirus 229E, MRC5, 144 h), the EC50 fell in the range of 100 to 1000 nM.

As for `CCCC[C@H]1C(=O)N2C[C@]3(C[C@H]2C#N)C(=O)Nc2ccc(cc23)CCCCCN1C(=O)c1cc2c(F)cc(F)cc2[nH]1` [Example 15], the IC50 in series [1] (setting [5]) is below 100 nM. For the same compound, in series [2] (setting [6]), the EC50 was below 100 nM.

Take `CC(C)C[C@H]1C(=O)N2C[C@]3(C[C@H]2C#N)C(=O)Nc2ccc(cc23)CCCCCN1C(=O)c1cnn(-c2ccccc2Cl)c1` [Example 22]: in series [1] (setting [5]), the IC50 is below 100 nM. Also, the EC50 in series [2] (setting [6]) is below 100 nM.

Take `CC(C)C[C@H]1C(=O)N2C[C@]3(C[C@H]2C#N)C(=O)Nc2ccc(cc23)CCCCCN1C(=O)c1cnn(-c2ccc(Cl)cc2Cl)c1` [Example 25]: in series [1] (setting [5]), the IC50 was below 100 nM.

One may read the IC50 as the concentration that gives 50% inhibition. One may read the EC50 as the midpoint of the concentration-response curve.
